“Also recorded” adds a separate entry of the source.
What was measured:
[1] = tested on: Cryptomeria japonica male flower buds and needle leaves; assay: Evaluation 1: immersion test of Cryptomeria japonica
Description: Evaluation 1 (Immersion Test of Cryptomeria japonica)
First, as agents to be used for an immersion test of Cryptomeria japonica, fatty acid derivative, fatty acid, polyoxyalkylene derivative, fats and oils and the like shown in Tables 1 and 2 were prepared. Next, many branches (length about 10 cm) of Cryptomeria japonica with 15 male flower buds on the tip were taken from the same tree of Cryptomeria japonica, and each group (five leaves for one group) was immersed in the agents (100 ml) of Tables 1 and 2. After immersing for about 1 min, the branches were taken out from the liquid and placed in a beaker. Browning changes were inspected visually on the male flower buds and needle leaves after one week. The test was performed using Cryptomeria japonica of August and November.

[2] = HLB of agent; assay type: physicochemical
[3] = branches of August, immersed about 1 min in agent, browning inspected visually after one week
[4] = branches of November, immersed about 1 min in agent, browning inspected visually after one week

CCCCCCCC/C=C\CCCCCCCC(=O)O [Comparative Example 1, oleic acid]
change of state of male flower bud (August) [1, 3]: markedly browned
change of state of male flower bud (November) [1, 4]: no effect; also recorded: no change
change of state of needle leaf (August) ([1]; in vivo): no change
change of state of needle leaf (November) ([1]; in vivo): no change

CCCCCCCC/C=C\CCCCCCCC(=O)[O-].[Na+] [compound 2, sodium oleate]
change of state of male flower bud (August) [1, 3]: markedly browned
change of state of needle leaf (August) [1, 3]: no change
change of state of male flower bud (November) [1, 4]: no effect; also recorded: no change
change of state of needle leaf (November) [1, 4]: no change

CCCCC/C=C\C/C=C\CCCCCCCC(=O)O [compound 3, linoleic acid]
change of state of male flower bud (August) [1, 3]: markedly browned
change of state of male flower bud (November) [1, 4]: no effect; also recorded: no change
change of state of needle leaf (August) ([1]; in vivo): no change
change of state of needle leaf (November) ([1]; in vivo): no change

methoxypolyoxyethylene oleic acid ester [Example 3]
change of state of male flower bud (August) [1, 3]: browned
change of state of male flower bud (November) [1, 4]: browned
change of state of needle leaf (August) ([1]; in vivo): no change
change of state of needle leaf (November) ([1]; in vivo): no change

polyoxyethylene dilinoleic acid ester [Example 4]
change of state of male flower bud (August) [1, 3]: markedly browned
change of state of male flower bud (November) [1, 4]: markedly browned
change of state of needle leaf (August) ([1]; in vivo): no change
change of state of needle leaf (November) ([1]; in vivo): no change

polyoxyethylene glycerol linoleic acid ester [Example 9]
change of state of male flower bud (August) [1, 3]: browned
change of state of male flower bud (November) [1, 4]: browned
change of state of needle leaf (August) ([1]; in vivo): no change
change of state of needle leaf (November) ([1]; in vivo): no change

polyoxyethylene linoleic acid ester [Example 2]
change of state of male flower bud (August) [1, 3]: markedly browned
change of state of male flower bud (November) [1, 4]: markedly browned
change of state of needle leaf (August) ([1]; in vivo): no change
change of state of needle leaf (November) ([1]; in vivo): no change
HLB [2]: (HLB = 10.2)

polyoxyethylene linolenic acid ester [Comparative Example 5]
change of state of male flower bud (August) [1, 3]: an effect was obtained; also recorded: markedly browned
change of state of male flower bud (November) [1, 4]: an effect was obtained; also recorded: markedly browned

polyoxyethylene methylglucoside oleic acid ester [Example 8]
change of state of male flower bud (August) [1, 3]: browned
change of state of male flower bud (November) [1, 4]: browned
change of state of needle leaf (August) ([1]; in vivo): no change
change of state of needle leaf (November) ([1]; in vivo): no change

polyoxyethylene oleic acid ester [Example 1]
change of state of male flower bud (August) [1, 3]: browned
change of state of needle leaf (August) [1, 3]: no change
change of state of male flower bud (November) [1, 4]: browned
change of state of needle leaf (November) [1, 4]: no change

polyoxyethylene sorbitan oleic acid ester [Example 6]
change of state of male flower bud (August) [1, 3]: browned
change of state of male flower bud (November) [1, 4]: browned

polyoxyethylene sorbitan palmitic acid ester [compound 7]
change of state of male flower bud (August) [1, 3]: no effect; also recorded: no change
change of state of male flower bud (November) [1, 4]: no effect; also recorded: no change

polyoxyethylene sorbitol [Comparative Example 6]
change of state of male flower bud (August) [1, 3]: not influenced; also recorded: no change
change of state of needle leaf (August) [1, 3]: not influenced; also recorded: no change
change of state of male flower bud (November) [1, 4]: not influenced; also recorded: no change
change of state of needle leaf (November) [1, 4]: not influenced; also recorded: no change

polyoxyethylene sorbitol linoleic acid ester [Example 7]
change of state of male flower bud (August) [1, 3]: browned
change of state of male flower bud (November) [1, 4]: browned
change of state of needle leaf (August) ([1]; in vivo): ho change
change of state of needle leaf (November) ([1]; in vivo): no change

polyoxyethylene stearic acid ester [compound 4]
change of state of male flower bud (August) [1, 3]: no effect; also recorded: no change
change of state of male flower bud (November) [1, 4]: no effect; also recorded: no change

polyoxyethylene-block-polyoxypropylene oleic acid ester [Example 5]
change of state of male flower bud (August) [1, 3]: browned
change of state of male flower bud (November) [1, 4]: browned
change of state of needle leaf (August) ([1]; in vivo): no change
change of state of needle leaf (November) ([1]; in vivo): no change

sunflower oil [compound 9]
change of state of needle leaf (August) ([1]; in vivo): no change
change of state of needle leaf (November) ([1]; in vivo): no change
